# Measurements from paper PMC13099959, “Context-dependent activation and evolutionary buffering of a mating pheromone in fission yeast” (Communications Biology, 2026).
# No end group written: not given here. Far = not defined here
# What was measured:
# [1] = tested on: S. pombe h90 strains (mating and sporulation); test: Frequency of zygote formation (microscopy-based mating frequency); type: cell-based, Schizosaccharomyces pombe
# Protocol: Cells were pre-cultured on YEA medium at 30 °C overnight, washed with 1 mL sterilized water (10,000 rpm, 3 min, 4 °C), and adjusted to an OD600 of 5.0. Aliquots (30 µL) were spotted on YEA, MEA, SSA, or fruit/vegetable juice media (grape, orange, apple, vegetable) and incubated at 30 °C for 48 h. After 48 h, cells were harvested and examined using a differential interference contrast microscopy (BX53, Olympus, Tokyo, Japan) with the UPlanSApo 60×/1.35 NA oil-immersion objective, ORCA-spark camera (Hamamatsu Photonics, Hamamatsu, Japan), and CellSens software. Nine random fields were imaged per plate. Mating rates were calculated as in Seike et al.[11] using the equation: Mating rate(%)=2Z+2A+0.5S×100/V+2Z+2A+0.5S where V, Z, A, and S represent vegetative cells, zygotes, asci, and spores, respectively. Data are reported as the mean ±s.d.
# All statistical analyses treated biological replicates (n = 3) as the unit of replication. Unless stated otherwise, values are reported as mean ± s.d., tests were two-sided, and no data were excluded. For two-group comparisons we used Welch’s t test (unequal variances). Significance in figures is denoted as p < 0.05, p < 0.01, and p < 0.001. […] For microscopy-based mating assays, nine random fields were scored per plate; field values were averaged within each biological replicate to avoid pseudoreplication. […] Analyses were performed in Python (pandas, numpy, math); plots were generated using matplotlib and seaborn.
# [2] = molecular target: T1, M-factor receptor Map3 (Schizosaccharomyces pombe, UniProt P31397); test: In vitro M-factor activity assay using a map4 promoter–lacZ fusion (β-galactosidase); type: cell-based; settings: synthetic peptide 10 µM, map4-lacZ reporter strain, nitrogen-free SSL medium, pH 5.5 or 7.0
# T1 construct: Tester strain TS472 was inoculated into 5 mL SSL + N medium; endogenous in cells; host or cells: S. pombe tester strain TS472 (map4 promoter-lacZ reporter)
# T1 sequence (P31397 1-365): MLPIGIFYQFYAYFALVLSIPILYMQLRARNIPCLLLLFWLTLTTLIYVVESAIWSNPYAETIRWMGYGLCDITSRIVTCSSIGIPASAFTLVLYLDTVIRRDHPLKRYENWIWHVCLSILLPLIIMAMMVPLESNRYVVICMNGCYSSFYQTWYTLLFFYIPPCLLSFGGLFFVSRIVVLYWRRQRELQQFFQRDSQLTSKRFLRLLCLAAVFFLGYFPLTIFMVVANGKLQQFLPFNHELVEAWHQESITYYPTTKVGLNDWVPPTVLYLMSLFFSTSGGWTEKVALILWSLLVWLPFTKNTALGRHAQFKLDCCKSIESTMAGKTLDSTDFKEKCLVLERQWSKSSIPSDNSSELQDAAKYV
# Protocol: β-galactosidase activity was measured to evaluate activation of the M-factor receptor Map3 using synthetic M-factor peptides, following a previously described method[22]. Tester strain TS472 was inoculated into 5 mL SSL + N medium (SSA without agar) at an initial OD600 of 0.1 and cultured at 30 °C for 20 h. Cells were washed three times with SSL–N medium (lacking 0.5 g/L aspartic acid) and resuspended in SSL–N at varying pH values (adjusted with HCl or NaOH) to OD600 = 2.0.
# Thereafter, cells were washed and resuspended in Z-buffer (60 mM Na2HPO4, 40 mM NaH2PO4, 10 mM KCl, 1 mM MgSO4·7H2O, and 50 mM β-mercaptoethanol; pH 7.0) to OD600 = 5.0. For each replicate (n = 3), 200 µL of cell suspension was mixed with 600 µL Z-buffer, 15 µL chloroform, and 12 µL 0.1% SDS, vortexed, and incubated at 30 °C for 5 min. Reactions were initiated with 160 µL o-nitrophenyl-β-D-galactopyranoside (ONPG; 4 mg/mL in Z-buffer), and both start and end times were recorded. After incubation at 30 °C, reactions were terminated with 400 µL 1 M Na2CO3, centrifuged (13,000 rpm, 3 min, 4 °C), and 200 µL supernatant was diluted into 1 mL 0.33 M Na2CO3. Absorbance at 420 nm (OD420) was measured to calculate Miller units. Miller units=(OD420×1000)/(V×t×OD600) where V is reaction volume (mL) and t is reaction time (minute). Data are reported as the mean ± s.d. […]
Substance,"Mating competence at pH 5.5 ([1]; SSA pH 5.5, 48 h)","Cells forming mature asci ([1]; SSA pH 7.5–8.5, 48 h)","Effect on mating in background with intact mfm2+ and mfm3+ genes ([1]; mfm1-P36H in h90 mfm2+ mfm3+ background, SSA pH 5.5 and pH 7.0)",pH dependence of β-galactosidase activity (Map3 activation) [2]
"P6H: M-factor single-amino acid variant; also tested as synthetic peptide (Eurofins) (YTPKVHYMC(Far)-OMe; ends and bridges not checked; UniProt P34068 31-39, looked up, variant P36H)",virtually sterile,approximately 50%,does not exert a dominant-negative effect on mating,–
"T2Q: M-factor single-amino acid variant; also tested as synthetic peptide (Eurofins) (YQPKVPYMC(Far)-OMe; ends and bridges not checked; UniProt P34068 31-39, looked up, variant T32Q)",–,–,–,higher activity at acidic pH
